Measurements reported in patent publication US20120258481A1, “CROSS-LINKING ATP ANALOGS” (WAYNE STATE UNIVERSITY, priority 2011, published 2012).

What was measured:
CK2 and α-casein = molecular target: T1, CK2 and α-casein (Homo sapiens, UniProt P68400); test: Kinase-catalyzed photocrosslinking with full-length α-casein, SDS-PAGE, coomassie and CK2 western blot; type: biochemical; details: α-casein 100 μM, co-substrate 1.3 mM, 365 nm UV; CK2 immunoblot
T1 construct: purchased New England Biolabs (NEB)
T1 sequence (P68400 whole entry): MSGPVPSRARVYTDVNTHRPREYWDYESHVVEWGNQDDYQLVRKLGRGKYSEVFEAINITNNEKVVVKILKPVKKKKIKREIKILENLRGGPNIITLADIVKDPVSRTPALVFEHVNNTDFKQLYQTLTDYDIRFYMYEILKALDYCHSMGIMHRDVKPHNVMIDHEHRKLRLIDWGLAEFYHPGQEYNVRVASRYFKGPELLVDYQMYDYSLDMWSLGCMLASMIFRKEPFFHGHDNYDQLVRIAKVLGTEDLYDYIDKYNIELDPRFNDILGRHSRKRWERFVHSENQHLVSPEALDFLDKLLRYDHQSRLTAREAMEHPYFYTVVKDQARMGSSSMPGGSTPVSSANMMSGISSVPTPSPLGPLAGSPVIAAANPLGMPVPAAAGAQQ
T1 sequence (P67870 whole entry partner): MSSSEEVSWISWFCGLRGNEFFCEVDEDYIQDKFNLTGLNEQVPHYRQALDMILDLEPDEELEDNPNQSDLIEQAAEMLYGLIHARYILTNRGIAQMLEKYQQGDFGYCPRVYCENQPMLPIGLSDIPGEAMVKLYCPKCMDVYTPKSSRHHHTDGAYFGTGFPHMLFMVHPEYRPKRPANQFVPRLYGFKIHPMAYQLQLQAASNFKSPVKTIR
Protocol: Having established phosphorylation-dependent crosslinking between kinase and peptide substrate, crosslinking with a full-length protein substrate was tested. The α-casein protein has been widely used as a model CK2 substrate in phosphoprotein analysis. Crosslinking was carried out by incubating a mixture of CK2 and α-casein with ATP-ArN3 in the presence of UV light. The products were separated by SDS-PAGE and analyzed by coomassie staining (FIG. 3a) and western blot analysis (FIG. 3b). […] Because phosphate transfer is required, a powerful feature of ATP-ArN3-mediated crosslinking is that a kinase substrate is necessarily present in the crosslinked product. Coupled with mass spectrometric analysis, phosphorylation-dependent kinase-substrate crosslinking can determine the sites of phosphorylation in addition to the effector kinase. Importantly, the crosslinking approach is appropriate for studies with cell lysates or homogenized tissue samples since natural kinase and substrate are utilized. […] The reaction products were separated by SDS-PAGE and visualized by coomassie staining, silver staining, in-gel fluorescence imaging, or western blotting with a CK2 antibody (Millipore) after transfer onto a PVDF membrane (Immobilon-PSQ, Millipore). […] The reaction mixtures were incubated for 2 hours at 30° C. before quantitative MALDI-TOF MS analysis (Bruker Daltonics), as previously described. […]

CK2 kinase = molecular target: T2, CK2 kinase (Homo sapiens, UniProt P68400); test: Kinase-catalyzed photocrosslinking with peptide substrate Rho-14, in-gel fluorescence; type: biochemical; details: Rho-14 200 μM, co-substrate 1.3 mM, 365 nm UV 2 hours at 30° C.
T2 construct: purchased New England Biolabs (NEB)
T2 sequence (P68400 whole entry): as the sequence (P68400 whole entry) above
T2 sequence (P67870 whole entry partner): as the sequence (P67870 whole entry partner) above
Protocol: Crosslinking was tested by incubating CK2 kinase and ATP-ArN3 with rhodamine-labeled CK2 peptide substrate 14 (Rho-[sequence], Rho-14). Simultaneously, the reaction mixture was irradiated with 365 nm light to afford a covalent crosslink (FIG. 1c). If kinase-substrate crosslinking occurred, the kinase was expected to become fluorescently labeled, which would be visualized by gel electrophoresis. […] As a final critical control, the crosslinked product was treated with acid to cleave the phosphoramidate bond bridging the peptide and kinase (FIG. 1c).
Photocrosslinking was initiated by irradiating with a handheld UV lamp at 365 nm for 2 hours at 30° C. The phosphoramidate bond in the crosslinked products was cleaved by adding trifluoroacetic acid (TFA) to a final concentration of 50% and incubating at 16° C. for 3 hours. The reaction products were separated by SDS-PAGE and visualized by coomassie staining, silver staining, in-gel fluorescence imaging, or western blotting with a CK2 antibody (Millipore) after transfer onto a PVDF membrane (Immobilon-PSQ, Millipore).
For the photocrosslinking experiments, CK2 (50 units/μL, 0.7 μM) was incubated with either Rho-14 (200 μM,) or full length α-casein (100 μM, Sigma), while Abl (20 units/μL, 44.4 nM) was incubated with ROX-13 (200 μM). All reactions also contained ATP or ATP-ArN3 (1.3 mM) and the manufacturers' kinase buffer.

Nc1ncnc2c1ncn2[C@@H]1O[C@H](COP(=O)(O)OP(=O)(O)OP(=O)(O)O)[C@@H](O)[C@H]1O [ATP, Adenosine 5′-triphosphate]
CK2-α-casein crosslinked complex (68 kDa) formation (CK2 and α-casein): crosslinked complex was absent | fluorophore labeling of CK2 (kinase-substrate crosslinking) (CK2 kinase): no fluorescence labeling was observed
